Reference: patent publication US6765014B1, “1-Acyl-7-nitroindoline derivatives, their preparation and their use as photocleavable precursors” (Medical Research Council, priority 1999, dated 2004)

Tests used:
[1] = literature value (16); cited from earlier work
[2] = Quantum yield estimation by laser flash irradiation (347 nm); format: physicochemical
Experimental: Quantum yield estimation for 10. A solution of 1-(2-nitrophenylethyl) phosphate and 10 (each 0.50 mM) together with dithiothreitol (5 mM) was prepared in 25 mM ammonium phosphate, pH 7.0. Aliquots of the solution ([…]) in a 1-mm path length cell were each subjected to one 50-ns flash from a frequency-doubled ruby laser, that delivered 347 nm light with an average energy of 90 mJ (range 83-104 mJ). The combined irradiated solutions were analyzed by reverse-phase HPLC (mobile phase 25 mM Na phosphate, pH 6.0+40% MeOH, 1.5 ml/min). Retention times were 4.2 and 7.2 min for 10 and 1-(2-nitrophenylethyl) phosphate respectively. Quantification was based on peak heights compared to those of the unphotolyzed control. Extinction coefficients at 347 nm used to calculate the relative quantum yields were 2720 and 510 M^−1cm^−1 for 10 and 1-(2-nitrophenylethyl) phosphate respectively. Photolysis and product analysis for compounds 10 and 18.
The product quantum yield (Qp) for photolysis of the glutamate derivative 10 was determined by laser flash irradiation (347 nm) of a solution containing 10 and 1-(2-nitrophenyl)ethyl phosphate (16) (both 0.5 mM in pH 7 phosphate buffer). Conversions by a single flash (˜90 mJ) were 9.7 and 23% respectively (reverse-phase HPLC), leading to Qp=0.043 by comparison with the known value (16) (0.54) for the caged phosphate and after correction for the different extinction coefficients at the irradiation wavelength. Although the value of Qp is low, the relatively high extinction coefficient at ˜350 nm (˜2700 M^−1cm^−1) compared to that of “classical” 2-nitrobenzyl-type caged compounds (˜600 M^−1cm^−1) enables similar photolytic efficiency to be achieved.

[3] = Relative photolysis efficiencies of 8 and 11 (xenon arc lamp, HPLC); format: physicochemical; settings: after 2 min irradiation, 0.5 mM each, 25 mM Na phosphate pH 7.0, 100 W xenon arc lamp
Experimental: Relative photolysis efficiencies of 8 and 11. A solution containing both 8 and 11 (each 0.5 mM) in 25 mM Na phosphate, pH 7.0 was irradiated in a 1-mm path length cell using light from a 100 W xenon arc lamp which passed through Hoya 340 and Schott WG 305 filters before. illuminating the cell. The extent of photolysis of each compound was determined by reverse-phase HPLC analysis (mobile phase 10 mM Na phosphate, pH 6.0+50% MeOH, 1.5 mL/min). Retention times for 8 and 11 were 3.8 and 7.8 min respectively. After 2 min irradiation, the extents of conversion for compounds 8 and 11 were 40 and 16% respectively.
(§1) Upon comparative photolysis of the 1-glutaryl derivatives 8 and 11 in aqueous solutions at pH 7 and without excluding atmospheric oxygen, the bromo compound 11 was indeed converted ˜2.5-fold less efficiently than 8. Photolysis of 8 proceeded cleanly, as shown by an isosbestic point at 365 nm in spectra of a solution photolyzed for increasing times to at least 65% conversion, but the photoproduct of the protecting group was not the 7-nitroindoline 12 (λmax 450 nm) expected from the previous report (6a). […] Further confirmation of the presence of a nitroso group was that treatment of 13, R=CH2CO2Me) with a thiol readily abolished the 412 nm chromophore, presumably by conversion to the corresponding hydroxylamine (11, 12). […] In control experiments, photolysis of the glutaryl compound 8 in CH2Cl2-dioxane-H2O (2:3:0.05) cleanly gave the expected (6a) nitroindoline 12.

[4] = Flash photolysis with time-resolved UV-VIS absorption spectroscopy, proton release (pH indicator); format: physicochemical; settings: 320 nm laser, 1 ms pulse, 20° C.
From the text: (§2) Formation of different products in different solvents requires a change of mechanism and there is some precedent for photoreactivity of nitroaryl compounds in aqueous solution that was not observed in organic solvents. […] Second, we have investigated the kinetics of product formation, specifically of the released proton and carboxylate. […] The latter process may correspond with the slow phase of proton release described above. An overlapping band on the high-frequency side of the main 1553 cm^−1 band makes definitive interpretation of the signals uncertain.

[5] = Analytical photolysis of 8 in organic and aqueous solvents; format: physicochemical; settings: CH2Cl2-dioxane-H2O mixture vs aqueous solution, equimolar solutions
Experimental: Analytical photolysis of 8 in organic and aqueous solvents. Solutions (˜[…]) of 8 in either CH2Cl2-dioxane-H2O (2:3:0.05) or 25 mM Na phosphate, pH 7.0 were irradiated in air for times between 0 and 16 min in a 1-cm path length cell with light from a 100 W xenon arc lamp, filtered through a Hoya 340 filter.
as §1

glutamate ion channels = test: Whole-cell patch clamp of cultured rat cerebellar granule neurones, with and without flash photolysis; format: cell-based; settings: with and without iontophoretic application of L-glutamate
Experimental: The caged L-glutamate reagent 10 was tested in primary cultures of rat cerebellar granule neurones for its pharmacological actions and ability to effect photolytic activation of glutamate ion channels. All electrophysiological experiments were performed in Mg^2+-free mammalian Ringer's solution containing 100 μM glycine. Cells were voltage clamped at −65 mV with whole-cell patch clamp (17) and the glutamate sensitivity was established by responses to 20 ms pulses of L-glutamate, applied at a frequency of 0.25 Hz by iontophoresis from a 1-μm tipped glass pipette. […] The latter most likely arises from glutamate diffusion away from the photolyzed region. The time course of the initial decline may represent desensitization of non-NMDA glutamate channels.
During the slow decline there was a clear increase in the low frequency noise of the glutamate-activated current compared to baseline, consistent with gating of glutamate-activated ion channels.

[6] = Hydrolytic stability of 1-acyl-7-nitroindolines (reverse-phase HPLC); format: physicochemical; settings: 62.5 mM Na phosphate, pH 12.01, 30° C.
Experimental: The extent of hydrolysis was determined by reverse-phase HPLC analysis (mobile phase 25 mM Na phosphate, pH 6.0+10% MeOH, 1.5 ml/min). […] Quantification was based on peak heights compared to those of unhydrolysed controls (to). First-order rate constants for hydrolysis were obtained from single exponential fits to the data.
In addition to the release rate of the bioeffector species following flash irradiation, important properties of any caged compound include stability in aqueous solution and its extent of photolysis upon a single flash irradiation.
In this context, hydrolytic stability refers to the amide bond. […] The use of the free acids avoided analytical complications from the much faster cleavage of the ester group.

[7] = Water solubility (stated in words); format: physicochemical
[8] = Flash photolysis with time-resolved IR measurements, carboxylate formation; format: physicochemical; settings: 1557 cm^−1, 351 nm laser, 9 ns pulse, 25° C., pH 7
From the text: as §2

[9] = pH 7,21° C.; cited from earlier work

## CC(OP(=O)(O)O)c1ccccc1[N+](=O)[O-] (stereo not drawn) [1-(2-nitrophenylethyl) phosphate, 1-(2-Nitrophenylethyl) phosphate, reference compound]
[1]
  Product quantum yield, known value: 0.54
[2]; 347 nm laser flash, ~90 mJ, 0.5 mM, pH 7 phosphate buffer
  Conversion by a single flash: 23%
[2]; used to calculate relative quantum yields
  Extinction coefficient at 347 nm: 510 M⁻¹ cm⁻¹

## COC(=O)Cc1cc2c(c([N+](=O)[O-])c1)N(C(=O)CCCC(=O)O)CC2 [Compound 8, Methyl 1-glutaryl-7-nitroindoline-5-acetate]
[3]
  Extent of conversion (photolysis): 40%
[4]; pH 7
  Proton release, rate of smaller component: ~9 s⁻¹
  Proton release, time course of major component: complete within the laser pulse
[4]; pH 7, Bromothymol Blue
  Proton release, major component share of signal: ~85%
[5]
  Fold more efficient photolysis in organic solvent than in water: at least 2 fold

## COC(=O)Cc1cc2c(c([N+](=O)[O-])c1)N(C(=O)CCCCOP(=O)(O)O)CC2 [Compound 9]
Glutamate ion channels
  Effect of the caged compound before, during and after photolysis: no effect
[6]
  Half-times for hydrolysis (amide hydrolysis): 29 h
[7]
  Water solubility: highly water-soluble
[8]
  Carboxylate formation, exponential rate of major component: ~2700 s⁻¹
  Carboxylate formation, exponential rate of minor component: ~10 s⁻¹
  Carboxylate formation, major component share of absorption increase: ~80%

## N-carboxyglutamate
[9]
  Decarboxylation rate k: ~150 s⁻¹
